Data taken from ChEMBL document CHEMBL1122997, “Conjugates of catecholamines. 5. Synthesis and beta-adrenergic activity of N-(aminoalkyl)norepinephrine derivatives” (J Med Chem, 1985).

Target: Beta-adrenergic receptor (Mus musculus, UniProt P34971+P18762+P25962)
Assay: Effective concentration against 125I]iodocyanopindolol(ICYP) binding to beta adrenergic receptor was determined
Type: protein assay

Row | SMILES | EC50 [µM]
1 | NCCCNCC(O)c1ccc(O)c(O)c1 (configuration not stated) | 160
2 | CC(CCCCNC(=O)OCc1ccccc1)NCC(O)c1ccc(O)c(O)c1 (configuration not stated) | 0.049
